Experimental data as given in ChEMBL document CHEMBL3102738, “Synthesis and biological evaluation of nitric oxide-donating analogues of sulindac for prostate cancer treatment” (Bioorg Med Chem, 2014).
Activity calls are given as the source filed them. The calls are words filed in the database; no cut-off is given here.

Key:
[1] = test system: PC-3; test: Cytotoxicity against human PC3 cells assessed as cell viability at 50 uM after 72 hrs by crystal violet method (reference value: 95.69 +/- 7.66%); type: functional; conditions: PC-3, 72 h, read-out: Activity
[2] = test system: PC-3; test: Cytotoxicity against human PC3 cells assessed as cell viability at 50 uM after 48 hrs by crystal violet method (reference value: 100.87 +/- 4.87%); type: functional; conditions: PC-3, 48 h, read-out: Activity
[3] = test system: PC-3; test: Cytotoxicity against human PC3 cells assessed as cell viability at 50 uM after 24 hrs by crystal violet method (reference value: 99.09 +/- 9.87%); type: functional; conditions: PC-3, 24 h, read-out: Activity
[4] = test system: PC-3; test: Cytotoxicity against human PC3 cells after 72 hrs by crystal violet method; type: functional, cell-based; conditions: PC-3, 72 h
[5] = test system: PC-3; test: Cytotoxicity against human PC3 cells at 50 nM after 72 hrs by crystal violet method; type: functional, cell-based
[6] = Induction of NO release in glutathione buffer assessed as nitrite level at 400 uM after 1 hr by Griess assay (reference value: 3.3 +/- 1.2 uM); type: physicochemical
[7] = Induction of NO release in glutathione buffer at 400 uM after 1 hr by Griess assay relative to sulindac; type: physicochemical
[8] = test system: PC-3; test: Cytotoxicity against human PC3 cells at 0.05 to 0.5 uM after 72 hrs by crystal violet method
[9] = test system: PC-3; test: Cytotoxicity against human PC3 cells assessed as cell viability at 500 nM after 72 hrs by crystal violet method; type: functional; conditions: PC-3, 72 h, read-out: Activity

SMILES | viability at 50 µM [1] [%] | viability at 50 µM [2] [%] | viability at 50 µM [3] [%] | IC50 [4] [µM] | Activity [5] | Activity [6] [µM] | Activity [7] [%] | Activity [8] | viability at 0.5 µM [9] [%]
CC1=C(CC(=O)OCCOCCOc2no[n+]([O-])c2S(=O)(=O)c2ccccc2)c2cc(F)ccc2/C1=C\c1ccc([S+](C)[O-])cc1 (configuration not stated) | 0 | 0 | 0 | 26 |  |  |  |  | 
CC1=C(CC(=O)OCCOc2no[n+]([O-])c2S(=O)(=O)c2ccccc2)c2cc(F)ccc2/C1=C\c1ccc([S+](C)[O-])cc1 (configuration not stated) | 0 | 0 | 0 | 27.9 |  |  |  |  | 
CC1=C(CC(=O)OCCCCCCOc2no[n+]([O-])c2S(=O)(=O)c2ccccc2)c2cc(F)ccc2/C1=C\c1ccc([S+](C)[O-])cc1 (configuration not stated) | 0 | 0 | 0 | 6.1 | Active | 54.4 | 13.6 |  | 
CC1=C(CC(=O)NCCNC(=O)/N=c2/c[n+](-c3ccccc3)[n-]o2)c2cc(F)ccc2/C1=C\c1ccc([S+](C)[O-])cc1 (configuration not stated) | 36.3 | 46.7 | 74 |  |  |  |  | inactive | 
CC1=C(CC(=O)O)c2cc(F)ccc2/C1=C\c1ccc([S+](C)[O-])cc1 (configuration not stated) [SULINDAC] | 89.3 | 101 | 87.3 |  |  | 1.1 | < 1 |  | 
CC1=C(CC(=O)NCCNC(=O)/N=c2/c[n+](-c3ccccc3)[n-]o2)c2cc(F)ccc2/C1=C\c1ccc(S(C)(=O)=O)cc1 | 55.5 | 58.2 | 86.1 |  |  |  |  | inactive | 
CC1=C(CC(=O)NCCOC(=O)/N=c2/c[n+](-c3ccccc3)[n-]o2)c2cc(F)ccc2/C1=C\c1ccc([S+](C)[O-])cc1 (configuration not stated) | 41.4 | 46.4 | 76.7 |  |  |  |  | inactive | 
CSc1ccc(/C=C2/C(C)=C(CC(=O)OCCOc3no[n+]([O-])c3S(=O)(=O)c3ccccc3)c3cc(F)ccc32)cc1 | 0 | 0 | 0 | 41.4 |  | 41.1 | 10.3 |  | 11.9
CSc1ccc(/C=C2/C(C)=C(CC(=O)OCCCOc3no[n+]([O-])c3S(=O)(=O)c3ccccc3)c3cc(F)ccc32)cc1 | 15.7 | 21.2 | 34.9 | 48.6 |  |  |  |  | 
CSc1ccc(/C=C2/C(C)=C(CC(=O)OCCCCOc3no[n+]([O-])c3S(=O)(=O)c3ccccc3)c3cc(F)ccc32)cc1 | 0 | 0 | 0 | 40.3 |  | 33 | 8.2 |  | 9.17
CC1=C(CC(=O)OC/C=C\COc2no[n+]([O-])c2S(=O)(=O)c2ccccc2)c2cc(F)ccc2/C1=C\c1ccc([S+](C)[O-])cc1 (configuration not stated) | 0 | 0 | 0 | 12.1 | Active | 51.1 | 12.8 |  | 
